According to patent US11116725B2, “Nanoparticles carrying antibiotics” (UNIVERSITY OF SOUTH FLORIDA, priority 2017, dated 2021):
Values after ≈ are worked out from the molar mass of the structure shown.

Columns and labels:
[1] = test system: Escherichia coli (K12); assay: 96-well plate broth assay, minimum inhibitory concentration (MIC); format: cell-based; details: triplicate, 37° C., 16-20 hours, concentration as N-acryloylciprofloxacin, read-out: MIC vs E. coli (K12)
Experimental: (§1) Each assay was done in triplicate.
(§2) The original stock emulsion was diluted using the Trypticase Soy Broth solution to an initial concentration of 1.28 mg/ml of the N-acryloylciprofloxacin, then serial diluted with TSB to half the concentration each time. A volume of 10 μl of each emulsion dilution was added to a well in series, resulting in a final concentration run of 64 μg/ml to 0.012 μg/ml. The MIC was done in triplicates for each bacterium, with ciprofloxacin hydrochloride being used as a positive control and a blank of broth medium was used as a negative control.
(§3) Bacteria were grown overnight at 37° C. on an agar plate composed of BBL TSA II Trypticase Soy Agar (TSA) and BBL Trypticase Soy Broth (TSB) in a 1:2 ratio at 4.4% concentration. A broth solution of 2.4% TSB was inoculated using the bacteria from the agar plates, and incubated at 37° C. to reach a 0.5 McFarland standard. The bacteria were then further diluted by a factor of 1000 using a broth solution of 2.4% TSB, and 190 μl of the diluted bacterial solution was transferred by micropipette into each well.

[2] = test system: Staphylococcus aureus (ATCC 25923); assay: as above; format: cell-based; details: ATCC25923, triplicate, 37° C., 16-20 hours, concentration as N-acryloylciprofloxacin, read-out: MIC vs S. aureus (ATCC 25923)
Experimental: as §1, §2, §3

[3] = Solubility in organic solvents; format: physicochemical
Experimental: This method was attempted using methanol, ethanol, ethyl acetate, and dichloromethane. […] However, there was a critical issue that resulted with the polymerization procedure. Typically, organics were stirred at 75° C., then the surfactant and water were added. This would cause the dichloromethane to rapidly evaporate.

SMILES	MIC [1]	MIC [2]	solubility in dichloromethane [3]
O=C(O)c1cn(C2CC2)c2cc(N3CCNCC3)c(F)cc2c1=O [Control Ciprofloxacin, ciprofloxacin]	0.012 mg/L (≈ 0.0362 µM)	0.5 mg/L (≈ 1.51 µM)	
C=CC(=O)N1CCN(c2cc3c(cc2F)c(=O)c(C(=O)O)cn3C2CC2)CC1 [N-acryloylciprofloxacin]			Up to 500 mg/ml
